Values of other authors, collected in patent US20190240144A1, “EFFERVESCENT DEFERIPRONE TABLET” (priority 2016, published 2019).

Details: in vivo

half-life (t1/2): 5-10 minus
Structure (SMILES): CC(=O)N(O)CCCCCNC(=O)CCC(=O)N(O)CCCCCNC(=O)CCC(=O)N(O)CCCCCN [deferoxamine]
